In patent publication US6656699B2, “Methods and compositions for glycosidase assays” (Reddy US Therapeutics, Inc., priority 2000, dated 2003):

Key:
heparanase = biological target: T1, heparanase (Pedobacter heparinus, UniProt Q59289); test: Heparanase assay: biotin-HS digestion with heparanase with or without excess unlabeled HS; assay type: biochemical, bacterial; conditions: 50 fold (5 μg) excess of unlabeled HS
T1 construct: purchased Seikagaku
Experimental: Biotin-labeled HS from Example 1 was digested with heparanase, and the reaction containing undegraded and degraded HS was bound to in a biotin-binding plate (FIG. 1). Streptavidin, conjugated with an enzyme, was added to the binding plate. Quantitation of the color reaction measured the amount of available biotin binding sites. A decrease in color from a known amount reflects HS digestion by heparanase.
A lyophilized powder of heparanase (Heparanase III obtained from Seikagaku) containing 0.1 units of enzymatic activity was hydrated in 100 μl of Reaction Buffer (3.33 mM calcium acetate pH 7.0, containing 0.1 mg/ml BSA). This solution was then diluted to a working concentration of heparanase solution (0.01 micro-units to 1 milli-unit) in Reaction Buffer. Enzyme activity was defined by the manufacturer of the heparanase (Seikagaku) as follows: one unit of enzyme activity is defined as amount required to generate 1 μmole of hexuronic acid per minute. Biotin-HS was diluted to a desired concentration in Reaction Buffer.
To determine heparanase activity, 10 μl of heparanase solution was mixed with 200 μl of the biotin-HS substrate in a 96 well plate. The reaction was incubated at 43° C. for 1 hour. […] Color development in the wells was assessed by measuring the optical density at 450 nm in a microplate reader (Labsystems, Muliskan Ascent model). […]

biotin-HS = test: Digestion of biotin-HS by enzymes, detected with streptavidin-enzyme conjugate; assay type: biochemical; conditions: protease in place of heparanase; FIG. 6

T1 sequence (Q59289 25-659): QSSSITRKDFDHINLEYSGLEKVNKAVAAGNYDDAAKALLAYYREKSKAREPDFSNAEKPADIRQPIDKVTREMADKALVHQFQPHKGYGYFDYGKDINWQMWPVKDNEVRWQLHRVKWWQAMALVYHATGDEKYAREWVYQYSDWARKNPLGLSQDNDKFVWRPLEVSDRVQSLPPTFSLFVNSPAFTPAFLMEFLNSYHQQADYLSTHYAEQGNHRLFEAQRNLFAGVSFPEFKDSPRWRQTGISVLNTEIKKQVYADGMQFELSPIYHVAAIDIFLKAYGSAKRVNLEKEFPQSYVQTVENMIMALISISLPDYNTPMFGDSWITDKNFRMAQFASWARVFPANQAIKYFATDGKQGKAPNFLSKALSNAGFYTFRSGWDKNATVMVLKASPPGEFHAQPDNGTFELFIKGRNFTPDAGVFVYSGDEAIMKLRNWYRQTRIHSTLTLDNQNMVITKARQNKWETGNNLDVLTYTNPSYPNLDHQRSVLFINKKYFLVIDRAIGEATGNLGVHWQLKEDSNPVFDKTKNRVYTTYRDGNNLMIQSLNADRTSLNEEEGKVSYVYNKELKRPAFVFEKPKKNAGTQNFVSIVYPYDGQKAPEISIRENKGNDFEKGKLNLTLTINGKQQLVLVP

Row | Substance | Inhibition of heparanase activity toward biotin-HS (heparanase) | Activity leading to a decrease in the amount of biotin-HS detected by the assay (biotin-HS)
1 | heparan sulfate [unlabeled HS] | approximately 60% | –
2 | trypsin | – | Neither protease tested (MMP or trypsin) demonstrated any activity
